Values joined by “and” are separate entries in the source; they are usually repeats but may differ in a detail not shown here. Identical values can stand only once.
Columns and labels:
[1] = tested on: A2780 cells; assay: MTT cell growth assay, A2780; assay type: cell-based, human; settings: 5 days
Method: Fig. 2 NHWD-870 inhibited BRD4 phosphorylation and c-MYC expression, and suppressed cell growth. a Representative western blot analysis of p-BRD4 (s484/488), BRD4, c-MYC, and GAPDH after treatment of MDA-MB231, SUM159, A2780 ES-2, and H526 cells with JQ-1 or NHWD-870 at the indicated concentrations for 24 h. GAPDH served as the loading control. Selected from three independent experiments. b MTT assays of H526, A2780, ES-2, and MDA-MB231 cells treated with JQ-1 or NHWD-870 at the indicated concentrations for 5 days. Data are presented as mean ± SEM from three independent experiments. c, d Clonogenic assays of H526, A2780, ES-2 and MDA-MB231 cells treated with 250 nM JQ-1 or NHWD-870 for 5 days. Shown are representative images (c) and quantification of colonies (d). […] Shown are representative images (e) and quantification of relative colony sizes (f). Scale bar, 50 μm. Data are presented as mean ± SEM from five independent experiments. p values were calculated using two-tailed, unpaired t tests in this figure. **p < 0.01; ***p < 0.001. Source data are provided as a Source Data file.
37℃, 5% CO2. […]

[2] = Equilibrium dialysis assay, human plasma
Method: The concentration was calculated using the peak area ratio of analyte and internal […]
The results were calculated by the following equations:
% Unbound = 100 *FC / TC, % Bound = 100 * (1-FC / TC)
% Recovery = 100 * (FC + TC) / T0
TC = Total compound concentration as determined by the calculated concentration on the retentate side of the membrane
FC = Free compound concentration as determined by the calculated concentration on the dialysate side of the membrane […]
Equation of first order kinetics: […]
8. Equilibrium dialysis assay. Binding with plasma protein and recovery rate of NHWD-870 were performed with human, CD-1 mouse and SD rat plasma as […]
described 2. […] The concentration was […]
calculated using the peak area ratio of analyte and internal standard. The results were calculated by the following equations: % Unbound = 100 *FC / TC, % Bound = 100 * (1-FC / TC); % Recovery = 100 * (FC + TC) / T0; TC = Total compound concentration as determined by the calculated concentration on the retentate side of the membrane; FC = Free compound concentration as determined by the (1 picture or pasted object on this page, not shown here) […]
calculated concentration on the dialysate side of the membrane; T0 = To t a l compound concentration as determined before dialysis. […]
10. hERG channel assay. […]
HEK293 cell line stably

[3] = tested on: H526 SCLC tumors; assay: H526 SCLC xenograft tumor growth; assay type: in vivo, mouse; settings: for Tumor volume: Fig.3a, n=6, individual animals
Description: (§1) PO, oral administration; QD, once daily; BID, twice daily. b–d Tumor growth curves for A2780 ovarian tumor (n = 5) (b), TMD8 large B cell lymphoma (n = 6) (c), and B16F10 melanoma (n = 5) (d) bearing mice treated with the indicated compounds once daily for 11-21 days. e, f Tumor growth curves for A375 melanoma (n = 6) (e), and patient-derived xenograft (PDX) of melanoma (n = 5) (f) bearing mice treated with the indicated compounds once daily (5 days on, 2 days off) for 21 days. For d–f, NHWD-870 used is NHWD-870-HCl synthesized using Suzuki coupling route. Data are presented as mean ± SEM in (a, b, d, f) and mean + SEM in (c, e). p values were calculated using two-tailed, unpaired t tests. *p < 0.05; **p < 0.01; ***p < 0.001. Source data are provided as a Source Data file.
(§2) 4–6 weeks old female BALB/c nude mice were used for most experiments, with the exception of 6–8 weeks old female C57BL/6 mice were used for B16F10 experiments, and 6–8 weeks old male BALB/c nude mice and SD rats were used for pharmacokinetic experiments. All animals were purchased from Shanghai SIPPR-Bk Lab Animal Co., Ltd. All animals were housed under a regimen of 12 h light/12 h dark cycles and specific pathogen-free conditions. 5×10^6 NCI-H526, ES-2, MDA-MB231, A2780, A375, B16F10, and TMD-8 cells (0.1 ml) were injected subcutaneously into female nude mice. The melanoma patient-derived xenograft model was derived from a human melanoma sample (BRAF, NARS and NF1 wild type, and p53 mutant) removed from a patient in Xiangya Hospital. Surgically removed tumor fragments were implanted subcutaneously into female NSG mice. When the tumors grew to ~1000 mm^3, they were harvested and cryopreserved or immediately re-implanted for expansion or experiments. Mouse body weight and tumor sizes were measured every 3 days. Once the tumors grew to 150–200 mm^3, mice were treated with the compounds as described in the Figures. 1 × 10^6 A2780 cells (1 ml) were injected into the abdominal cavity of nude mice. Ascitic volume and tumor weight were measured by an electronic balance. All the procedures were evaluated and approved by the Institutional Animal Care and Use Committee of Central South University and Yale University.

[4] = tested on: B16F10 mouse melanoma; assay: B16F10 mouse melanoma syngeneic model tumor growth; assay type: in vivo, C57BL/6 mice; settings: B16F10 mouse melanoma, once daily 11 days, NHWD-870-HCl
Description: as §1, §2

[5] = tested on: human melanoma patient-derived xenograft (PDX); assay: Human melanoma patient-derived xenograft (PDX) tumor growth; assay type: in vivo, NSG mice; settings: human melanoma PDX, once daily (5 days on, 2 days off) 21 days, NHWD-870-HCl
Description: as §1, §2

Cc1nnn(C)c1-c1cnc2c3c4cnn(C)c4ccc3n([C@H](c3ccccc3)C3CCOCC3)c2c1 [NHWD-870]
MTT assay, relative cell number ([1]; A2780, 0.1 nM): 0.974 and 0.959 and 0.985
MTT assay, relative cell number ([1]; A2780, 1 nM): 0.705 and 0.725 and 0.731
MTT assay, relative cell number ([1]; A2780, 10 nM): 0.252 and 0.282 and 0.215
MTT assay, relative cell number ([1]; A2780, 100 nM): 0.025 and 0.047 and 0.033
MTT assay, relative cell number ([1]; A2780, 500 nM): 0
MTT assay, relative cell number ([1]; A2780, 1000 nM): 0
MTT assay, relative cell number ([1]; A2780, 5000 nM): 0
MTT assay, relative cell number ([1]; A2780, 10000 nM): 0
% Bound ([2]; Human plasma, equilibrium dialysis): 97.5%
fraction unbound ([2]; human, plasma): 0.025
recovery ([2]; human, plasma): 92.8%
Tumor volume ([3]; 0.75mg/kg p.o. QD x 21D, day 0): 192.244 mm^3 and 263.88 mm^3 and 212.226 mm^3 and 157.172 mm^3 and 251.256 mm^3 and 74.1662 mm^3
Tumor volume ([3]; 0.75mg/kg p.o. QD x 21D, day 3): 395.966 mm^3 and 556.678 mm^3 and 654.987 mm^3 and 201.421 mm^3 and 423.505 mm^3 and 90.8277 mm^3
Tumor volume ([3]; 0.75mg/kg p.o. QD x 21D, day 7): 723.612 mm^3 and 1124.37 mm^3 and 964.914 mm^3 and 402.947 mm^3 and 655.847 mm^3 and 216.235 mm^3
Tumor volume ([3]; 0.75mg/kg p.o. QD x 21D, day 10): 1123.82 mm^3 and 1337.09 mm^3 and 1219.11 mm^3 and 614.795 mm^3 and 939.345 mm^3 and 324.637 mm^3
Tumor volume ([3]; 0.75mg/kg p.o. QD x 21D, day 14): 1169.07 mm^3 and 1508.45 mm^3 and 1544.25 mm^3 and 755.744 mm^3 and 1018.31 mm^3 and 369.016 mm^3
Tumor volume ([3]; 0.75mg/kg p.o. QD x 21D, day 17): 1563.43 mm^3 and 1842.12 mm^3 and 2108.97 mm^3 and 937.093 mm^3 and 1199.84 mm^3 and 528.17 mm^3
Tumor volume ([3]; 0.75mg/kg p.o. QD x 21D, day 20): 1882.72 mm^3 and 1980.4 mm^3 and 2365.8 mm^3 and 1110.57 mm^3 and 1230.51 mm^3 and 727.098 mm^3
Tumor volume ([3]; 1.5mg/kg p.o. BID x 21D, day 0): 109.221 mm^3 and 224.83 mm^3 and 299.894 mm^3
Tumor volume ([3]; 1.5mg/kg p.o. BID x 21D, day 3): 144.898 mm^3 and 505.755 mm^3
Tumor volume ([3]; 1.5mg/kg p.o. BID x 21D, day 7): 197.484 mm^3 and 503.899 mm^3
Tumor volume ([3]; 1.5mg/kg p.o. BID x 21D, day 10): 131.255 mm^3 and 391.019 mm^3
Tumor volume ([3]; 1.5mg/kg p.o. BID x 21D, day 14): 62.3145 mm^3 and 300.826 mm^3
Tumor volume ([3]; 1.5mg/kg p.o. BID x 21D, day 17): 47.429 mm^3 and 191.773 mm^3
Tumor volume ([3]; 1.5mg/kg p.o. BID x 21D, day 20): 26.6114 mm^3 and 100.415 mm^3 and 135.956 mm^3
Tumor volume ([3]; 1.5mg/kg p.o. QD x 21D, day 0): 70.0321 mm^3 and 190.911 mm^3 and 142.166 mm^3 and 225.589 mm^3 and 289.503 mm^3 and 248.923 mm^3
Tumor volume ([3]; 1.5mg/kg p.o. QD x 21D, day 3): 54.6804 mm^3 and 344.715 mm^3 and 214.258 mm^3 and 388.716 mm^3 and 680.326 mm^3 and 337.153 mm^3
Tumor volume ([3]; 1.5mg/kg p.o. QD x 21D, day 7): 52.3406 mm^3 and 448.169 mm^3 and 304.6 mm^3 and 593.496 mm^3 and 1004.88 mm^3 and 603.12 mm^3
Tumor volume ([3]; 1.5mg/kg p.o. QD x 21D, day 10): 65.7752 mm^3 and 568.076 mm^3 and 360.126 mm^3 and 706.593 mm^3 and 1344.39 mm^3 and 669.797 mm^3
Tumor volume ([3]; 1.5mg/kg p.o. QD x 21D, day 14): 53.8674 mm^3 and 610.408 mm^3 and 386.917 mm^3 and 812.577 mm^3 and 1371.12 mm^3 and 772.943 mm^3
Tumor volume ([3]; 1.5mg/kg p.o. QD x 21D, day 17): 48.5889 mm^3 and 810.7 mm^3 and 443.445 mm^3 and 889.286 mm^3 and 1654.72 mm^3 and 1027.16 mm^3
Tumor volume ([3]; 1.5mg/kg p.o. QD x 21D, day 20): 34.4047 mm^3 and 640.677 mm^3 and 402.424 mm^3 and 852.013 mm^3 and 1472.9 mm^3 and 894.82 mm^3
effect on tumor growth ([3]; H526 SCLC, oral, 3 mg/kg per day or 1.5 mg/kg twice per day, 21 days): regressed established H526 SCLC tumors
effect on tumor growth [4]: very strong tumor inhibitive effects
effect on tumor growth [5]: very strong tumor inhibitive effects

From article PMC7156724, “Potent BRD4 inhibitor suppresses cancer cell-macrophage interaction” (Nature Communications, 2020)
